The values that follow come from patent US20230399312A1, “SUBSTITUTED PYRIMIDINES AND METHODS OF USE” (THERAVANCE BIOPHARMA R&D IP, LLC, priority 2020, published 2023).

Bounds are passed on as bounds.

Assay [1] concerns the target T1, recombinant human ALK5 (TGF-βR1) protein (Homo sapiens, UniProt P36897).
T1 construct: purchased Life Technologies PR9075A
T1 sequence (P36897 34-503): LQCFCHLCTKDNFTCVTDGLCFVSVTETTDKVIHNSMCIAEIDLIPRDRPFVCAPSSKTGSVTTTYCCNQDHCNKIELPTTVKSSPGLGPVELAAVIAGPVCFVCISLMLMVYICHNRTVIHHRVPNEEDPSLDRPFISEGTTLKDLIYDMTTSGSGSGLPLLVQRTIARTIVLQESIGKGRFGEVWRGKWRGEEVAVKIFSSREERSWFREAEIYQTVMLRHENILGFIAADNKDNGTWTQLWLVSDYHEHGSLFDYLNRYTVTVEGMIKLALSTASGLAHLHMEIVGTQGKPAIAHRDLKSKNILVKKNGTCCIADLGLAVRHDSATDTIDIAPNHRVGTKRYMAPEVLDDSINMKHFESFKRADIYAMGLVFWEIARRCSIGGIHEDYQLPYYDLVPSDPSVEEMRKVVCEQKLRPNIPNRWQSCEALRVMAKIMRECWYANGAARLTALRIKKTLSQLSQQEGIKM
Put plainly: Biochemical ALK5 (TGF-βR1) assay to measure pKi (LANCE Ultra ULight kinase assay). Particulars: apparent pKi, converted from pIC50 by Cheng-Prusoff. The essentials: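 Cmpd + enzyme, 60 min RT; ATP from 125 μM (5×) stock, 60 min 37 °C; stop 12 mM EDTA/Eu anti-pThr1342 Topo2α Ab (pH 7.0 buffer); TR-FRET 665 nm. DMSO = max, SD-208 = min signal. 4-PL pIC50 → pKi (Cheng-Prusoff).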
(In general: In TR-FRET formats the signal depends on donor and acceptor labels being close together.)

Assay [2] deals with TGF-β-stimulated SMAD3 phosphorylation in BEAS-2B cells. Put plainly: Cellular ALK5 potency assay, inhibition of TGF-β stimulated pSMAD3 formation in BEAS-2B cells. Format: cell-based. Particulars: Homo sapiens, pSMAD3, TGF-β 10 ng/mL, read-out: BEAS2B pIC50 (converted). The essentials:
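Human lung epithelial BEAS-2B cells were preincubated 1 h at 37 °C with compound in HBSS/HEPES/1% BSA, then stimulated 30 min with 10 ng/mL TGF-β. pSMAD3 in lysates was quantified by AlphaLISA relative to untreated stimulated cells; reported as pIC50.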

Consider `Cc1cccc(-c2nccc(Nc3ccnc(Nc4ccc(N5C[C@H]6CC[C@@H](C5)N6)cc4)n3)n2)n1` [Compound 34, N4-[2-(6-methyl-2-pyridyl)pyrimidin-4-yl]-N2-[4-[rac-(1S,5R)-3,8-diazabicyclo[3.2.1]octan-3-yl]phenyl]pyrimidine-2,4-diamine], for which, in assay [1], the Ki was 0.0398 to 0.316 nM. In assay [2], the IC50 was 25.1 to 158 nM.
Turning to `Fc1ccc(-c2nccc(Nc3ccnc(Nc4ccc(N5CCOCC5)cc4)n3)n2)c(F)c1` [Compound 35, N4-[2-(2,4-difluorophenyl)pyrimidin-4-yl]-N2-(4-morpholinophenyl) pyrimidine-2,4-diamine], the Ki in assay [1] is 3.98 to 31.6 nM. For the same molecule, the IC50 in assay [2] was 25.1 to 158 nM.
As for `Cc1cccc(-c2nccc(Nc3ccnc(Nc4ccc(-c5cnn(CCO)c5)cc4)n3)n2)n1` [Compound 36, 2-[4-[4-[[4-[[2-(6-methyl-2-pyridyl)pyrimidin-4-yl]amino]pyrimidin-2-yl]amino]phenyl]pyrazol-1-yl]ethanol], in assay [1], the Ki is 0.398 to 3.16 nM. For the same molecule, the IC50 in assay [2] is 25.1 to 158 nM.
The like results for `Cc1cccc(-c2nccc(Nc3ccnc(Nc4ccc(N5CCN(C(=O)CSC(CCO)C(=O)O)CC5)cc4)n3)n2)n1` (centres unmarked) [Compound 37, 4-hydroxy-2-[2-[4-[4-[[4-[[2-(6-methyl-2-pyridyl)pyrimidin-4-yl]amino]pyrimidin-2-yl]amino]phenyl]piperazin-1-yl]-2-oxo-ethyl]sulfanyl-butanoic acid] were, in that order, 0.0398 to 0.316 nM and 200 to 1260 nM.
In the case of `CCN1CCN(S(=O)(=O)c2ccc(Nc3nccc(Nc4ccnc(-c5cccc(C)n5)n4)n3)cc2)CC1` [Compound 38, N2-[4-(4-ethylpiperazin-1-yl)sulfonylphenyl]-N4-[2-(6-methyl-2-pyridyl)pyrimidin-4-yl]pyrimidine-2,4-diamine], the Ki in assay [1] was 0.0398 to 0.316 nM. In assay [2], the IC50 was 25.1 to 158 nM.
The like results for `Cc1cccc(-c2nccc(Nc3ccnc(Nc4cccc(CN5CCSCC5)c4)n3)n2)n1` [Compound 39, N4-[2-(6-methyl-2-pyridyl)pyrimidin-4-yl]-N2-[3-(thiomorpholinomethyl)phenyl] pyrimidine-2,4-diamine] were, in that order, 0.0398 to 0.316 nM and 25.1 to 158 nM.
In the case of `Cc1cccc(-c2nccc(Nc3ccnc(Nc4csc(C(=O)NC5(CO)CCNC5)c4)n3)n2)n1` (centres unmarked) [Compound 40, N-[3-(hydroxymethyl)pyrrolidin-3-yl]-4-[[4-[[2-(6-methyl-2-pyridyl)pyrimidin-4-yl]amino]pyrimidin-2-yl]amino]thiophene-2-carboxamide], the Ki in assay [1] is 0.0398 to 0.316 nM. In addition, the IC50 in assay [2] was 25.1 to 158 nM.
In the case of `Cc1cccc(-c2nccc(Nc3ccnc(Nc4ccc(N5CCNCC5CC(=O)OCC(C)C)cc4)n3)n2)n1` (centres unmarked) [Compound 41, isobutyl 2-[1-[4-[[4-[[2-(6-methyl-2-pyridyl)pyrimidin-4-yl]amino]pyrimidin-2-yl]amino]phenyl]piperazin-2-yl]acetate], the Ki in assay [1] was 0.0398 to 0.316 nM. Moreover, the IC50 in assay [2] was 25.1 to 158 nM.
With `Cc1cccc(-c2nccc(Nc3ccnc(Nc4nc(C(=O)NCC5CNC5)cs4)n3)n2)n1` [Compound 42, N-(azetidin-3-ylmethyl)-2-[[4-[[2-(6-methyl-2-pyridyl)pyrimidin-4-yl]amino]pyrimidin-2-yl]amino]thiazole-4-carboxamide], the Ki in assay [1] is not above 0.0316 nM. For the same molecule, the IC50 in assay [2] is 25.1 to 158 nM.
For `Cc1cccc(-c2nccc(Nc3ccnc(Nc4ccccc4)n3)n2)n1` [Compound 43, N4-[2-(6-methyl-2-pyridyl)pyrimidin-4-yl]-N2-phenyl-pyrimidine-2,4-diamine] the same measures were 0.398 to 3.16 nM and not above 20 nM.
For `Cc1cccc(-c2nccc(Nc3ccnc(Nc4nc(C(=O)NC5CNC5)cs4)n3)n2)n1` [Compound 44, N-(azetidin-3-yl)-2-[[4-[[2-(6-methyl-2-pyridyl)pyrimidin-4-yl]amino]pyrimidin-2-yl]amino]thiazole-4-carboxamide] the same measures were 0.0398 to 0.316 nM and 25.1 to 158 nM.
For `Cc1cccc(-c2nccc(Nc3ccnc(Nc4cccc(CO)c4)n3)n2)n1` [Compound 45, [3-[[4-[[2-(6-methyl-2-pyridyl)pyrimidin-4-yl]amino]pyrimidin-2-yl]amino]phenyl]methanol] the same measures were 0.0398 to 0.316 nM and not above 20 nM.
Consider `Cc1cccc(-c2nccc(Nc3ccnc(Nc4ccc(N5CCN[C@H](CO)C5)cc4)n3)n2)n1` [Compound 46, [(2S)-4-[4-[[4-[[2-(6-methyl-2-pyridyl)pyrimidin-4-yl]amino]pyrimidin-2-yl]amino]phenyl]piperazin-2-yl]methanol], for which the Ki in assay [1] was not above 0.0316 nM. Moreover, the IC50 in assay [2] is 25.1 to 158 nM.
For `CCOC(=O)Cn1cc(-c2ccc(Nc3nccc(Nc4ccnc(-c5cccc(C)n5)n4)n3)cc2)cn1` [Compound 47, ethyl 2-[4-[4-[[4-[[2-(6-methyl-2-pyridyl)pyrimidin-4-yl]amino]pyrimidin-2-yl]amino]phenyl]pyrazol-1-yl]acetate] the same measures were 0.398 to 3.16 nM and 25.1 to 158 nM.
In the case of `Cc1cccc(-c2nccc(Nc3ccnc(Nc4ccc(Cl)c(CN5CCNCC5)c4)n3)n2)n1` [Compound 49, N2-[4-chloro-3-(piperazin-1-ylmethyl)phenyl]-N4-[2-(6-methyl-2-pyridyl)pyrimidin-4-yl]pyrimidine-2,4-diamine], the Ki in assay [1] was 0.0398 to 0.316 nM. In assay [2], the IC50 is 25.1 to 158 nM.
Regarding `Cc1cccc(-c2nccc(Nc3ccnc(Nc4ccc(CN5CCC(C(=O)OC6CNC6)C5)cc4)n3)n2)n1` (centres unmarked) [Compound 50, azetidin-3-yl 1-[[4-[[4-[[2-(6-methyl-2-pyridyl)pyrimidin-4-yl]amino]pyrimidin-2-yl]amino]phenyl]methyl] pyrrolidine-3-carboxylate], in assay [1], the Ki was 0.0398 to 0.316 nM. Besides, the IC50 in assay [2] is 25.1 to 158 nM.
The like results for `Cc1cccc(-c2nccc(Nc3ccnc(Nc4ccc(C(=O)O[C@H]5CCN(C)C5)cc4)n3)n2)n1` [Compound 51, [(3S)-1-methylpyrrolidin-3-yl] 4-[[4-[[2-(6-methyl-2-pyridyl)pyrimidin-4-yl]amino]pyrimidin-2-yl]amino]benzoate] were, in that order, 0.0398 to 0.316 nM and 25.1 to 158 nM.
For `Cc1cccc(-c2nccc(Nc3ccnc(Nc4ccc(C(=O)O[C@@H]5CCN(C)C5)s4)n3)n2)n1` [Compound 52, [(3R)-1-methylpyrrolidin-3-yl] 5-[[4-[[2-(6-methyl-2-pyridyl)pyrimidin-4-yl]amino]pyrimidin-2-yl]amino]thiophene-2-carboxylate] the same measures were 0.0398 to 0.316 nM and 25.1 to 158 nM.
On to `Cc1cccc(-c2nccc(Nc3ccnc(Nc4cnn(CCN)c4)n3)n2)n1` [Compound 53, N2-[1-(2-aminoethyl)pyrazol-4-yl]-N4-[2-(6-methyl-2-pyridyl)pyrimidin-4-yl]pyrimidine-2,4-diamine], for which, in assay [1], the Ki was 0.0398 to 0.316 nM. In assay [2], the IC50 is 200 to 1260 nM.
`Cc1cccc(-c2nccc(Nc3ccnc(Nc4ccc(OCCO)cc4)n3)n2)n1` [Compound 54, 2-[4-[[4-[[2-(6-methyl-2-pyridyl)pyrimidin-4-yl]amino]pyrimidin-2-yl]amino]phenoxy]ethanol]: in assay [1], the Ki was 0.398 to 3.16 nM. Further, the IC50 in assay [2] was 25.1 to 158 nM.
For `Cc1cccc(-c2nccc(Nc3ccnc(Nc4ccc(N5CCCC(C(=O)OC6CCN(C)C6)C5)cc4)n3)n2)n1` (centres unmarked) [Compound 55, (1-methylpyrrolidin-3-yl) 1-[4-[[4-[[2-(6-methyl-2-pyridyl)pyrimidin-4-yl]amino]pyrimidin-2-yl]amino]phenyl]piperidine-3-carboxylate] the same measures were 0.0398 to 0.316 nM and 25.1 to 158 nM.
The like results for `Cc1cccc(-c2nccc(Nc3ccnc(Nc4ccc(-c5cnn(C)c5)cc4)n3)n2)n1` [Compound 56, N2-[4-(1-methylpyrazol-4-yl)phenyl]-N4-[2-(6-methyl-2-pyridyl)pyrimidin-4-yl]pyrimidine-2,4-diamine] were, in that order, 0.398 to 3.16 nM and 25.1 to 158 nM.
The like results for `Cc1cccc(-c2nccc(Nc3ccnc(Nc4ccc(N5CCNCC5)c(CC(=O)OCC5CNC5)c4)n3)n2)n1` [Compound 57, azetidin-3-ylmethyl 2-[5-[[4-[[2-(6-methyl-2-pyridyl)pyrimidin-4-yl]amino]pyrimidin-2-yl]amino]-2-piperazin-1-yl-phenyl]acetate] were, in that order, 0.0398 to 0.316 nM and 200 to 1260 nM.
As to `Cc1cccc(-c2nccc(Nc3ccnc(Nc4ccc(NC(=O)C5(O)CCNC5)cc4)n3)n2)n1` (centres unmarked) [Compound 58, 3-hydroxy-N-[4-[[4-[[2-(6-methyl-2-pyridyl)pyrimidin-4-yl]amino]pyrimidin-2-yl]amino]phenyl]pyrrolidine-3-carboxamide], the Ki in assay [1] is 0.0398 to 0.316 nM. In assay [2], the IC50 was not above 20 nM.
For `COC(=O)C1CCN(c2ccc(Nc3nccc(Nc4ccnc(-c5cccc(C)n5)n4)n3)cc2)CC1` [Compound 60, methyl 1-[4-[[4-[[2-(6-methyl-2-pyridyl)pyrimidin-4-yl]amino]pyrimidin-2-yl]amino]phenyl]piperidine-4-carboxylate] the same measures were 0.0398 to 0.316 nM and 25.1 to 158 nM.
